{"source": "patent US20040086888A1", "about": "“Method for tandem genomic/proteomic analysis of proliferating cells” (priority 2003, published 2004)", "key": {"human breast tumor cells": {"system": "human breast tumor cells", "assay": "Hormonal therapy inhibition of cell proliferation (Example 6)", "assay_type": "cell-based"}, "[1]": {"system": "human brain tumor and human ovarian tumor cells", "assay": "Combined modality drug/radiation microtiter assay (Example 8)", "assay_type": "cell-based", "settings": "Taxol 0.5-25.0 μM with 2 Gy, or Taxol 5 μM with 1 Gy-6 Gy; through five days post-treatment", "experimental": "Twenty-four hours post-plating, cells in the microtiter plate wells were exposed to the chemotherapeutic agent Taxol. One set of plates was designed to have escalating Taxol doses with (0.5-25.0 μM) with a fixed radiation dose (2 Gy). A second set of plates was designed to have a fixed Taxol dose (5 μM) with an escalating radiation dose (1 Gy-6 Gy). The cells in the plates were irradiated using a Siemans Stabilipan X-ray machine operating at 250 kVp, 15 mA with a dose rate of 75 rad/min.\nFor each of the two treatment schema, cell number per well was monitored as a function of time through five days post-treatment. Cell number relative to controls was determined and survival curves were fit."}, "tumor cells in culture": {"system": "tumor cells in culture", "assay": "Microtiter well assay of drug/radiation interaction (FIGS. 8A-8C)", "assay_type": "cell-based", "settings": "Taxol 8.5 ng/ml or 42.5 ng/ml + 2 Gy and 4 Gy versus radiation-only", "from_the_text": "The microtiter well assay is ideally suited for examination of the interaction of chemotherapeutic agents and radiation. Issues such as the differential sensitivity of drug/radiation combinations and the timing of drug/radiation combinations may be directly addressed with this system."}, "[2]": {"system": "human ovarian tumor cells", "assay": "Combination chemotherapy microtiter assay (Example 5)", "settings": "four tumor specimens"}, "[3]": {"system": "epithelial tumor cell lines", "assay": "Immunoperoxidase staining for intermediate filaments", "assay_type": "cell-based", "settings": "immunoperoxidase technique, cells in culture", "from_the_text": "(§1) The technique is practiced as follows. The same cell culturing and well distribution process is used as in the cytotoxicity assay described above, but rather than exposing the cells to chemotherapeutic or other agents, the cells are instead fixed and stained. With the stain or stain cocktail described below, the epithelial cells are identified by their intermediate filaments and/or specific membrane antigens by means of a monoclonal antibody immunoperoxidase technique. […] The fixed stained cells are then counted. If the specimen is positive for epithelial cells, the process is complete. If the specimen is negative for epithelial cells, an independent fixing and staining process is subsequently completed, with fresh cells from identical wells, using Vimentin as a stain to confirm the non-epithelial nature of the cells.\n(§2) Many tumor specimens will contain a mixture of cancer and normal cells. Although in many cases tumor cells will readily grow in tissue culture while the normal cells will not, it is important to be able to distinguish the two cell types. Using immunoperoxidase techniques to stain cells for various intermediate filaments, the differences between normal (fibroblast-like) cells and cells from epithelial tumors were characterized. These techniques can also be used to identify other tumor cell characteristics which may have prognostic value. […]"}, "fibroblast cell line": {"system": "fibroblast cell line", "assay": "Immunoperoxidase staining for intermediate filaments", "assay_type": "cell-based", "settings": "immunoperoxidase technique, cells in culture", "from_the_text": "as §1, §2"}}, "data": [{"compound": "CC/C(=C(\\c1ccccc1)c1ccc(OCCN(C)C)cc1)c1ccccc1", "note": "[Tamoxifen]", "values": [{"measurement": "inhibition of cell proliferation (cell number relative to control)", "setting": "human breast tumor cells; 10 nM to 20 μM, six doses, 24 h exposure, then 72 h incubation, four breast tumor specimens", "result": "two of the four breast specimens tested showed an inhibition of cell proliferation"}, {"measurement": "concentration range in which the responses occurred", "setting": "human breast tumor cells; range tested 10 nM to 20 μM", "result": "mid-to-high"}]}, {"compound": "CC(=O)O[C@H]1C(=O)[C@@]2(C)[C@H]([C@H](OC(=O)c3ccccc3)[C@]3(O)C[C@H](OC(=O)[C@H](O)[C@@H](NC(=O)c4ccccc4)c4ccccc4)C(C)=C1C3(C)C)[C@]1(OC(C)=O)CO[C@@H]1C[C@@H]2O", "note": "[Taxol]", "values": [{"measurement": "cell killing in combination with radiation (cell number relative to controls, survival curves)", "setting": "[1]", "result": "Both additive and synergistic cell killing were noted"}, {"measurement": "effect on radiation response (survival rates)", "setting": "tumor cells in culture", "result": "enhancement of radiation response"}, {"measurement": "cell number relative to control", "setting": "[2]; escalating Taxol (1.0, 5.0, 25 μM) with fixed carboplatin (200 μM)", "result": "a dose response relationship was observed"}]}, {"compound": "N.N.O=C([O-])C1(C(=O)[O-])CCC1.[Pt+2]", "note": "[carboplatin]", "values": [{"measurement": "cell number relative to control", "setting": "[2]; fixed Taxol (5 μM) with escalating carboplatin (50, 200, 1000 μM)", "result": "a dose response relationship was observed"}]}, {"compound": "Vimentin", "values": [{"measurement": "staining of epithelial tumor cells", "setting": "[3]", "result": "mildly positive"}, {"measurement": "staining of fibroblasts", "setting": "fibroblast cell line", "result": "all fibroblast cells were positive"}]}]}
